In article PMC8864869, “A short peptide derived from pigment epithelial-derived factor exhibits an angioinhibitory effect” (BMC Ophthalmology, 2022):
Where “and” joins values, the source holds several entries; their conditions need not be identical. Equal entries are not always repeated.

What was measured:
Format in all cases: cell-based, human
RPMI8226 cells [1] = tested on: RPMI8226 cells
Description: Human multiple myeloma cells, RPMI8226 were purchased from Bioresource Collection and Research Center (Hsinchu, Taiwan). Cells were cultivated in RPMI1640 medium supplemented with 10% FBS, 50 μg/ml penicillin, 50 μg/ml streptomycin, and 2 mM L-glutamine at 37 °C in a 5% CO2 atmosphere. Cell viability was determined by an MTT assay. […] MTT stock solution added to medium alone was included as a negative control. Aliquots (450 μl) from each sample were transferred to a new well of a 48-well culture plate, 100 μl DMSO added with thorough mixing, and allowed to react at 37 °C for 20 min before reading the absorbance at 570 nm.

RPMI8226 cells [2] = assay: Annexin V-FITC/PI double-staining apoptosis assay in RPMI8226 cells; settings: 10 ng/ml VEGF + 25 μM peptide, 24 h, serum-free; early + late apoptosis; mean ± SD, three independent experiments
Description: (§1) Cell apoptosis was examined using a TACS annexin V-FITC kit according to the manufacturer’s instructions for in situ staining. The cell numbers were monitored by counterstaining with Hoechst 33342. Afterward, apoptosis was examined and photographed by a Zeiss epifluorescence microscope (× 100, 10 fields/sample). Images were recorded on Zeiss software.
Fig. 2 The 34-mer and 7-mer induce apoptosis of RPMI8226 cells. a Fluorescence microscopy of annexin V-FITC/PI double staining. Treatment of RPMI8226 cells was as described in Fig. 1. Apoptosis was determined by annexin V-FITC staining (green dots) and double stained with propidium iodide (red dots). A representative of three independent experiments is shown. b The percentage of apoptotic cells was quantified by dividing the number of annexin V-positive cells by the total number of cells counted by phase-contrast light microscopy. Control peptide indicates cells were treated with the 5-mer. Histograms show means ± SD. ^aP < 0.005 versus peptide solvent-treated cells. ^bP < 0.0002 versus VEGF-treated cells. ^cP < 0.001 versus 34-mer-treated cells
(§2) Fig. 3 The 7-mer induces JNK signaling to trigger RPMI8226 cell apoptosis. 3 × 10^5 cells were serum starved for 24 h and then exposed to 10 ng/ml VEGF and 25 μM 7-mer for the indicated time periods. a Western blotting was performed to detect the active phosphorylated forms of JNK (p-JNK) and p38 MAPK (p-p38), shown in the upper panels. Antibodies were then stripped and the blots were re-incubated with anti-JNK and anti-p38 MAPK antibodies (lower panels), respectively, to detect the levels of total JNK and p38 MAPK. b Densitometric analyses from three independent experiments are shown. c Cell were pretreated with 10 μM SP600125 or SB203580 for 10 min and then treated as described above for 24 h and apoptosis was quantified using the annexin V-FITC apoptosis detection kit. *P < 0.0001 versus 7-mer-treated cells

JNK = assay: Western blot of phosphorylated JNK in RPMI8226 cells; settings: 10 ng/ml VEGF + 25 μM 7-mer
Description: (§3) Cell lysis and SDS–PAGE were as described previously. Antibodies used in this study were for active p38 MAPK and active JNK (Promega, Madison, WI), p38 MAPK/SAPK2, JNK (Upstate Biotechnology, Lake Placid, NY), p53 (Chemicon, Temecula, CA), bax, p21, cleaved caspase-3 and β-actin (Abcam Ltd., Cambridge, UK). Proteins of interest were detected using the appropriate IgG-horseradish peroxidase-linked secondary antibody (Santa Cruz Biotechnology) and enhanced chemiluminescence reagent (Amersham, Arlington Heights, IL). X-ray films were scanned on a model GS-700 Imaging Densitometer (Bio-Rad, Hercules, CA) and analyzed with Labworks 4.0 software. For quantification, blots from at least three independent experiments were used.
as §2

p38 MAPK = assay: Western blot of phosphorylated p38 MAPK in RPMI8226 cells; settings: 10 ng/ml VEGF + 25 μM 7-mer, time course
Description: as §3
as §2, with “3 × 10^5 cells were serum starved for 24 h and then exposed to 10 ng/ml VEGF and 25 μM 7-mer for the indicated time periods. a Western blotting was performed to detect the active phosphorylated forms of JNK (p-JNK) and p38 MAPK (p-p38), shown in the upper panels.” left out

[3] = tested on: p53, Bax, p21, cleaved caspase-3; assay: Western blot of p53, Bax, p21 and cleaved caspase-3 in RPMI8226 cells
Description: as §3
Fig. 4 The 7-mer induces JNK signaling to trigger p53/bax/p21^Waf1 expression in RPMI8226 cells. a and b Cell treatments were as described in Fig. 3. Cell lysates were then prepared for western blot analysis of p53, Bax, and p21. Representative blots and densitometric analyses from three independent experiments are shown. ^*P < 0.001 versus 7-mer-treated cells

HUVECs [4] = assay: Endothelial cell capillary-like tube formation assay; settings: 20 ng/ml VEGF, 10 μM 7-mer, matrigel, 0.5% FBS, 6 h
Description: (§4) Cells were grown in Medium 200 with LSGS (supplement contains 1.9% fetal bovine serum, 3 ng/ml bFGF, 10 μg/ml heparin, 1 μg/ml hydrocortisone, and 10 ng/ml EGF). Culture plates were coated with 2% gelatin. Cells (passages 4–8) were cultured at 37 °C in a humidified atmosphere of 5% CO2. For peptide treatment, HUVECs were cultured in low serum (0.5% FBS) medium containing 20 ng/ml VEGF and 7-mer peptide (20 μM, unless otherwise specified).
Growth factor-reduced matrigel was pipetted into pre-chilled 24-well plates (150 μl matrigel per well) and polymerized for 45 min at 37 °C. HUVECs (4 × 10^4 per well) in low serum (0.5% FBS) medium were treated with 20 ng/ml VEGF and 7-mer (10 μM) in matrigel coated plates. After 6 h of incubation, tubular structures were photographed. Images were captured using a Cannon camera on a Zeiss inverted microscope with magnification × 40.
The experiment was repeated three times. Magnification is × 40. b The 7-mer induces HUVEC apoptosis in the presence of VEGF. Cell apoptosis was analyzed using the Annexin V-FITC Apoptosis Detection kit according to the in situ staining protocol after treatment for 16 h. Double staining with an annexin V-FITC and the fluorescent dye Hoechst 33342 was used to visualize the apoptotic cells (green) and nuclei (blue), respectively. […] The percentages of apoptotic cells were quantified. ^aP < 0.005 versus VEGF-treated cells

HUVECs [5] = assay: Annexin V-FITC apoptosis assay in HUVECs; settings: 20 ng/ml VEGF + peptide (20 μM), 0.5% FBS, 16 h; four independent experiments
Description: as §4, §1
The experiment was repeated three times. Magnification is × 40. b The 7-mer induces HUVEC apoptosis in the presence of VEGF. Cell apoptosis was analyzed using the Annexin V-FITC Apoptosis Detection kit according to the in situ staining protocol after treatment for 16 h. Double staining with an annexin V-FITC and the fluorescent dye Hoechst 33342 was used to visualize the apoptotic cells (green) and nuclei (blue), respectively. A representative result of four independent experiments is shown. The percentages of apoptotic cells were quantified. ^aP < 0.005 versus VEGF-treated cells

[6] = 7-mer for 8 h, VEGF-treated RPMI8226 cells, densitometry, three independent experiments

For “7-mer: PEDF Asp64-Ser70, N-acetylated, C-amidated (Ac-DLYRVRS-NH2; UniProt P36955 64-70, looked up, fragment)”, the “cytotoxic effect on RPMI8226 cells in the absence of VEGF” value (RPMI8226 cells [1]) was “neither peptide had a significant cytotoxic effect”, the “MTT value, VEGF-induced RPMI8226 cell proliferation, 1 μM peptide” value (RPMI8226 cells [1]; 10 ng/ml VEGF + 1 μM peptide (lowest concentration), 24 h, mean ± SD) was 101 ± 1.2% and the “anti-VEGF activity of the 7-mer relative to the 34-mer (MTT)” value (RPMI8226 cells [1]; 10 ng/ml VEGF + 25 μM peptide, 24 h) was ~ 1.5 fold. The “MTT value, VEGF-induced RPMI8226 cell proliferation” value (RPMI8226 cells [1]; 10 ng/ml VEGF + 25 μM peptide, 24 h, serum-free medium, solvent-treated/untreated cells set as 100%, mean ± SD, three independent experiments) was 58 ± 4.1% and 57.3% and 54 ± 1.5%, the “dose dependence of cell viability of VEGF-treated RPMI8226 cells” value (RPMI8226 cells [1]; 1, 5, 10 and 25 μM peptide with VEGF, MTT) was “decreased cell viability in a dose-dependent manner” and the “apoptotic (annexin V+) RPMI8226 cells” value (RPMI8226 cells [2]) was 38.6 ± 2.1%. For the same substance, the “time for which JNK phosphorylation was sustained” value (JNK) was “up to 10 h”, the “time of peak p-p46 JNK” value (JNK) was 2 h and the “p-p46 JNK phosphorylation” value (JNK; time course) was “increase in p-p46 JNK was detected 20 min after 7-mer treatment”. The “p38 MAPK phosphorylation” value (p38 MAPK) was “no significant effect on p38 MAPK phosphorylation”, the “Bax protein level compared to solvent control” value [3, 6] was 4.5 ± 0.40 fold and the “p21Waf1 protein level compared to solvent control” value [3, 6] was 5.5 ± 0.43 fold. For the same substance, the “p53 protein level compared to solvent control” value [3, 6] was 3.6 ± 0.39 fold, the “cleaved/active caspase-3” value ([3]; 7-mer treatment for 24 h) was “elevation of cleaved/active caspase-3” and the “VEGF-stimulated tube-like network of HUVECs” value (HUVECs [4]) was “marked decrease of the VEGF-stimulated tube-like network”. The “apoptotic HUVECs (annexin V-FITC)” value (HUVECs [5]) was 43.0 ± 5.5%.
